Test results: patent US7186534B1 (The Trustees of Columbia University in the City of New York, priority 1997, dated 2007)
pIC50: −log10 of the molar value. “Also recorded” adds a separate entry of the source. Where two headings read alike, the source gives them in different places.

Experiments:
[1] = molecular target: T1, human 9-cis retinol dehydrogenase (9cRDH) (Homo sapiens, UniProt Q92781); test: Inhibition of recombinant human 9cRDH activity (9-cis-retinol oxidation, CHO cell homogenate, HPLC); type: biochemical; conditions: for inhibition of human 9cRDH activity (in words) / pIC50: 10 μM 9-cis-retinol; for pIC50: 15 min, 37° C., CHO cell homogenate, read-out: Estimated inhibitor concentration resulting in 50% inhibition of human 9-cis retinol dehydrogenase activity (ID50)
T1 sequence (Q92781 1-318): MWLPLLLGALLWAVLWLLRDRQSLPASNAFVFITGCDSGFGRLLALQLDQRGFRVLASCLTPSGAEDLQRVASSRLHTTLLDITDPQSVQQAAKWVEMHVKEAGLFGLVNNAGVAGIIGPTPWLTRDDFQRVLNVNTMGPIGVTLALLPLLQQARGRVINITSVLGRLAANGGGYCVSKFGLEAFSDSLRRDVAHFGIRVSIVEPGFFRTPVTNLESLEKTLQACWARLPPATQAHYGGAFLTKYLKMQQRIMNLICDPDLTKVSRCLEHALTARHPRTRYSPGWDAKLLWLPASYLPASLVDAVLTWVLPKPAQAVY

mouse 9cRDH = molecular target: T2, mouse 9cRDH (Mus musculus, UniProt O55240); test: Inhibition of recombinant mouse 9cRDH activity (9-cis-retinol oxidation, CHO cell homogenate, HPLC); type: biochemical; conditions: for inhibition of mouse 9cRDH activity (in words): 10 μM 9-cis-retinol
T2 sequence (O55240 1-318): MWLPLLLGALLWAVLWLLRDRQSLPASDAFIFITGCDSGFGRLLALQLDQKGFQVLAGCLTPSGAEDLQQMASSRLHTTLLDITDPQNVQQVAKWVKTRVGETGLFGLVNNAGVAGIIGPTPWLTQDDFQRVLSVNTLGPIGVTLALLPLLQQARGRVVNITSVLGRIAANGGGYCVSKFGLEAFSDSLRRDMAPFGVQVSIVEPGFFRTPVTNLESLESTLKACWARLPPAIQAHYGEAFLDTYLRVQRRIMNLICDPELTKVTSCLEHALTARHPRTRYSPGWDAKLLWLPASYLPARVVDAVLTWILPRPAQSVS

[2] = NaCl up to 1 M, β-mercaptoethanol, dithiothreitol 1 mM, Triton X-100, sodium cholate 1% (w/v)
[3] = 10 μM steroid, equimolar to substrate, forward (retinol oxidation) or reverse (retinaldehyde reduction) direction
[4] = phenylarsine oxide 15 μM, carbenoxolone 0.5 mM, all others 1 mM
[5] = […] 15 μM, carbenoxolone 0.5 mM, all others 1 mM

O=C(O)CN(CCN(CC(=O)O)CC(=O)O)CC(=O)O [EDTA]
effect on 9cRDH activity expressed in CHO cells (first series) [1, 2]: not inhibited

CC(=O)[O-].CC(=O)[O-].[Zn+2] [zinc acetate]
influence of SCAD/alcohol dehydrogenase inhibiting reagents on recombinant human 9cRDH activity [1]: none of these compounds influenced | influence of SCAD/alcohol dehydrogenase inhibiting reagents on recombinant mouse 9cRDH activity (mouse 9cRDH): none of these compounds influenced

CCCCCCCCCCC/C=C\CCCCCO [Petroselinyl Alcohol, petroselinyl alcohol]
inhibition of human 9cRDH activity (in words) [1]: did not inhibit; also recorded: not an inhibitor | pIC50 [1]: < 4.00 | inhibition of human 9cRDH activity (in words) ([1]; listed as petrosenlinyl alcohol): only very weak inhibitors | inhibition of mouse 9cRDH activity (in words) (mouse 9cRDH): only very weak inhibitors

CCCCCCCC/C=C\CCCCCCCC(=O)O [Oleic Acid, oleic acid]
times (fold) less potent than 13-cis retinoic acid as inhibitor of 9cRDH [1]: approximately 100 | inhibition of human 9cRDH activity (in words) [1]: mild inhibitor; also recorded: only very weak inhibitors; also recorded: weakly inhibited | pIC50 [1]: 4.82 | inhibition of mouse 9cRDH activity (in words) (mouse 9cRDH): only very weak inhibitors

C[C@]12CC[C@@H]3c4ccc(O)cc4CC[C@H]3[C@@H]1CC[C@@H]2O [β-estradiol]
inhibition of human 9cRDH activity by hydroxysteroids [1, 3]: none of these hydroxysteroids inhibited | inhibition of mouse 9cRDH activity by hydroxysteroids (mouse 9cRDH; [3]): none of these hydroxysteroids inhibited

C[C@]12C=CC(=O)C=C1CC[C@@H]1[C@@H]2C(=O)C[C@@]2(C)[C@H]1CC[C@]2(O)C(=O)CO [prednisone]
inhibition of human 9cRDH activity by hydroxysteroids [1, 3]: none of these hydroxysteroids inhibited | inhibition of mouse 9cRDH activity by hydroxysteroids (mouse 9cRDH; [3]): none of these hydroxysteroids inhibited

Cc1cn[nH]c1 [4-methylpyrazole]
influence of SCAD/alcohol dehydrogenase inhibiting reagents on recombinant human 9cRDH activity [1, 4]: none of these compounds influenced | influence of SCAD/alcohol dehydrogenase inhibiting reagents on recombinant mouse 9cRDH activity (mouse 9cRDH; [4]): none of these compounds influenced

CCN(CC)C(=S)SSC(=S)N(CC)CC [disulfuran]
influence of SCAD/alcohol dehydrogenase inhibiting reagents on recombinant human 9cRDH activity [1, 5]: none of these compounds influenced | influence of SCAD/alcohol dehydrogenase inhibiting reagents on recombinant mouse 9cRDH activity (mouse 9cRDH; [5]): none of these compounds influenced

C[C@]12CCC(=O)C=C1CC[C@@H]1[C@@H]2[C@@H](O)C[C@@]2(C)[C@H]1CC[C@]2(O)C(=O)CO [hydrocortisone]
inhibition of human 9cRDH activity by hydroxysteroids [1, 3]: none of these hydroxysteroids inhibited | inhibition of mouse 9cRDH activity by hydroxysteroids (mouse 9cRDH; [3]): none of these hydroxysteroids inhibited

c1cnc2c(c1)ccc1cccnc12 [o-phenanthroline, 1,10-phenanthroline]
effect on 9cRDH activity expressed in CHO cells (first series) [1, 2]: not inhibited | influence of SCAD/alcohol dehydrogenase inhibiting reagents on recombinant human 9cRDH activity [1, 4]: none of these compounds influenced | influence of SCAD/alcohol dehydrogenase inhibiting reagents on recombinant mouse 9cRDH activity (mouse 9cRDH; [4]): none of these compounds influenced

CCO [ethanol]
inhibition of human 9cRDH activity (in words) [1]: not inhibited | effect on 9cRDH activity expressed in CHO cells (first series) [1, 2]: not inhibited | inhibition of mouse 9cRDH activity (in words) (mouse 9cRDH): not inhibited

C[C@H](CCC(=O)[O-])[C@H]1CC[C@H]2[C@@H]3[C@H](O)C[C@@H]4C[C@H](O)CC[C@]4(C)[C@H]3C[C@H](O)[C@]12C.[Na+] [sodium cholate]
effect on 9cRDH activity expressed in CHO cells (first series) [1]: rapidly inactivated

C[C@]12CCC(=O)C=C1CC[C@@H]1[C@@H]2CC[C@]2(C)C(=O)CC[C@@H]12 [4-androstene-3,17dione]
inhibition of human 9cRDH activity by hydroxysteroids [1, 3]: none of these hydroxysteroids inhibited | inhibition of mouse 9cRDH activity by hydroxysteroids (mouse 9cRDH; [3]): none of these hydroxysteroids inhibited

C[C@]12CCC(=O)C[C@@H]1CC[C@@H]1[C@@H]2CC[C@]2(C)C(=O)CC[C@@H]12 [5α-androstane-3,17dione]
inhibition of human 9cRDH activity by hydroxysteroids [1]: none of these hydroxysteroids inhibited | inhibition of mouse 9cRDH activity by hydroxysteroids (mouse 9cRDH): none of these hydroxysteroids inhibited

CC1(C)[C@@H](OC(=O)CCC(=O)O)CC[C@]2(C)[C@H]3C(=O)C=C4[C@@H]5C[C@@](C)(C(=O)O)CC[C@]5(C)CC[C@@]4(C)[C@]3(C)CC[C@@H]12 [carbenoxolone]
influence of SCAD/alcohol dehydrogenase inhibiting reagents on recombinant human 9cRDH activity [1, 4]: none of these compounds influenced | influence of SCAD/alcohol dehydrogenase inhibiting reagents on recombinant mouse 9cRDH activity (mouse 9cRDH; [4]): none of these compounds influenced

CCCCCCCC/C=C\CCCCCCCCO [Oleyl Alcohol, oleyl alcohol]
inhibition of human 9cRDH activity (in words) [1]: did not inhibit; also recorded: only very weak inhibitors; also recorded: not an inhibitor | pIC50 [1]: < 4.00 | inhibition of mouse 9cRDH activity (in words) (mouse 9cRDH): only very weak inhibitors

C[C@]12CC[C@H](O)C[C@@H]1CC[C@@H]1[C@@H]2CC[C@]2(C)[C@@H](O)CC[C@@H]12 [5α-androstane-3β, 17βdiol]
inhibition of human 9cRDH activity by hydroxysteroids [1, 3]: none of these hydroxysteroids inhibited | inhibition of mouse 9cRDH activity by hydroxysteroids (mouse 9cRDH; [3]): none of these hydroxysteroids inhibited

Triton X-100
effect on 9cRDH activity expressed in CHO cells (first series) [1]: rapidly inactivated

CC(=O)[C@H]1CC[C@H]2[C@@H]3CCC4=CC(=O)CC[C@]4(C)[C@H]3CC[C@]12C [progesterone]
inhibition of human 9cRDH activity by hydroxysteroids [1, 3]: none of these hydroxysteroids inhibited | inhibition of mouse 9cRDH activity by hydroxysteroids (mouse 9cRDH; [3]): none of these hydroxysteroids inhibited

C[C@]12CCC(=O)C=C1CC[C@@H]1[C@@H]2C(=O)C[C@@]2(C)[C@H]1CC[C@]2(O)C(=O)CO [cortisone]
inhibition of human 9cRDH activity by hydroxysteroids [1, 3]: none of these hydroxysteroids inhibited | inhibition of mouse 9cRDH activity by hydroxysteroids (mouse 9cRDH; [3]): none of these hydroxysteroids inhibited

CCCCCCCCCCCCCCCC(=O)O [Palmitic Acid, palmitic acid]
pIC50 [1]: < 4.00 | inhibition of human 9cRDH activity (in words) ([1]; listed as Palmitic acid): not an inhibitor | inhibition of human 9cRDH activity (in words) ([1]; listed as palmitic acid): not inhibitory; also recorded: only very weak inhibitors | inhibition of mouse 9cRDH activity (in words) (mouse 9cRDH): only very weak inhibitors

CC(C)=CCCC(C)=CC=O [citral]
influence of SCAD/alcohol dehydrogenase inhibiting reagents on recombinant human 9cRDH activity [1, 5]: none of these compounds influenced | influence of SCAD/alcohol dehydrogenase inhibiting reagents on recombinant mouse 9cRDH activity (mouse 9cRDH; [5]): none of these compounds influenced

C[C@]12C[C@H](O)[C@H]3[C@@H](CCC4=CC(=O)CC[C@@]43C)[C@@H]1CC[C@@H]2C(=O)CO [corticosterone]
inhibition of human 9cRDH activity by hydroxysteroids [1, 3]: none of these hydroxysteroids inhibited | inhibition of mouse 9cRDH activity by hydroxysteroids (mouse 9cRDH; [3]): none of these hydroxysteroids inhibited
